Each structure is given as a SMILES string. The source made the active and inactive calls. The rule behind the calls is not given here.

Assay [1] deals with Lactuca sativa. The assay is described as follows: Bleaching activity against Lactuca sativa cv. Sacramento (lettuce) seedlings assessed as bleaching ratings at 3 ppm incubated for 4 days at 25 degC under 12 hr photoperiod. The format is functional.
For assay [2], the system named is Lactuca sativa. Nature of the assay: Bleaching activity against Lactuca sativa cv. Sacramento (lettuce) seedlings assessed as bleaching ratings at 10 ppm incubated for 4 days at 25 degC under 12 hr photoperiod. The format is functional.
Assay [3] relates to Lactuca sativa. The assay is described as follows: Bleaching activity against Lactuca sativa cv. Sacramento (lettuce) seedlings assessed as bleaching ratings at 1 ppm incubated for 4 days at 25 degC under 12 hr photoperiod. The format is functional.
Assay [4] relates to Lactuca sativa. The assay is described as follows: Bleaching activity against Lactuca sativa cv. Sacramento (lettuce) seedlings assessed as bleaching ratings at 25 ppm incubated for 4 days at 25 degC under 12 hr photoperiod. The format is functional.
Assay [5] relates to Lactuca sativa. Nature of the assay: Bleaching activity against Lactuca sativa cv. Sacramento (lettuce) seedlings assessed as bleaching ratings at 5 ppm incubated for 4 days at 25 degC under 12 hr photoperiod. The format is functional.
For assay [6], the system named is Lactuca sativa. Nature of the assay: Bleaching activity against Lactuca sativa cv. Sacramento (lettuce) seedlings assessed as bleaching ratings at 50 ppm incubated for 4 days at 25 degC under 12 hr photoperiod. The format is functional.
Assay [7] has as its system Radish. The assay is described as follows: Induction of phytoene accumulation in Raphanus sativus cv. Osaka (radish) seedlings at 10 to 100 uM incubated for 4 days at 25 degC under dark conditions. The format is functional, organism-based.
Assay [8] relates to Radish. Nature of the assay: Reduction in chlorophyll content in Raphanus sativus cv. Osaka (radish) seedlings at 10 uM incubated for 4 days at 25 degC under 12 hr photoperiod by spectrophotometry. The format is functional. Also on record: scale not given: the % may be the effect or the level left.
Assay [9] deals with Radish. Nature of the assay: Reduction in phytoene accumulation in Raphanus sativus cv. Osaka (radish) seedlings at 100 uM incubated for 4 days at 25 degC under dark conditions relative to untreated control. The format is functional, organism-based.
The test system of assay [10] is Radish. Nature of the assay: Reduction in beta-carotene content in Raphanus sativus cv. Osaka (radish) seedlings at 10 to 100 uM incubated for 4 days at 25 degC under dark conditions. The format is functional, organism-based.
Assay [11] concerns Radish. Nature of the assay: Reduction in chlorophyll content in Raphanus sativus cv. Osaka (radish) seedlings at 10 uM incubated for 4 days at 25 degC under dark conditions. The format is functional, organism-based.
The test system of assay [12] is Radish. Nature of the assay: Reduction in carotenoid content in Raphanus sativus cv. Osaka (radish) seedlings at 10 uM incubated for 4 days at 25 degC under dark conditions. The format is functional, organism-based.
For assay [13], the system named is Radish. The assay is described as follows: Reduction in carotenoid content in Raphanus sativus cv. Osaka (radish) seedlings at 10 to 100 uM incubated for 4 days at 25 degC under 12 hr photoperiod. The format is functional, organism-based.
Assay [14] concerns Radish. Nature of the assay: Reduction in carotenoid content in Raphanus sativus cv. Osaka (radish) seedlings at 10 uM incubated for 4 days at 25 degC under 12 hr photoperiod. The format is functional. More on the design: scale not given: the % may be the effect or the level left.
Assay [15] concerns Radish. Nature of the assay: Induction of phytoene accumulation in Raphanus sativus cv. Osaka (radish) seedlings at 50 uM incubated for 4 days at 25 degC under dark conditions relative to untreated control. The format is functional.
Assay [16] relates to Radish. The assay is described as follows: Reduction in chlorophyll content in Raphanus sativus cv. Osaka (radish) seedlings at 10 to 100 uM incubated for 4 days at 25 degC under 12 hr photoperiod by spectrophotometry. The format is functional, organism-based.
The subject of assay [17] is Radish. Nature of the assay: Reduction in chlorophyll content in Raphanus sativus cv. Osaka (radish) seedlings at 100 uM incubated for 4 days at 25 degC under 12 hr photoperiod by spectrophotometry. The format is functional, organism-based.
In assay [18] the test system is Radish. The assay is described as follows: Reduction in carotenoid content in Raphanus sativus cv. Osaka (radish) seedlings at 100 uM incubated for 4 days at 25 degC under 12 hr photoperiod. The format is functional, organism-based.

Consider `C#CCSc1nncn1-c1ccc(OCC)cc1`, for which the Activity is listed as 1 in the assay on Lactuca sativa [1]; 3 in the assay on Lactuca sativa [2]; 0 in the assay on Lactuca sativa [3]; 3 with Lactuca sativa [4]; 2 with Lactuca sativa [5].

As for `Sc1nncn1-c1ccccc1`, the Activity in the assay with Lactuca sativa [2], with Lactuca sativa [4] and in the assay on Lactuca sativa [6] was 0 in each case.

With `C=CCSc1nncn1-c1ccccc1`, the Activity with Lactuca sativa [2], with Lactuca sativa [4] and with Lactuca sativa [6] was 0 throughout.

With `CSc1nncn1-c1ccccc1`, the Activity in the assay with Lactuca sativa [2], in the assay with Lactuca sativa [4] and with Lactuca sativa [6] was 0 in each case.

`C#CCSc1nncn1-c1ccc(C)cc1`: the Activity stood at 1 in the assay on Lactuca sativa [1]; 3 in the assay with Lactuca sativa [2]; 0 in the assay on Lactuca sativa [3]; 3 in the assay with Lactuca sativa [4]; 3 in the assay on Lactuca sativa [5].

Turning to `C#CCSc1nncn1-c1ccc(Cl)c(Cl)c1`, the Activity with Lactuca sativa [1] is 2; with Lactuca sativa [2], 4; in the assay with Lactuca sativa [3] it was 0; with Lactuca sativa [4] it was 4; in the assay with Lactuca sativa [5], 3.

As to `CCCSc1nncn1-c1ccccc1`, the Activity in the assay on Lactuca sativa [2] was 1; with Lactuca sativa [4], 2; in the assay on Lactuca sativa [6] it was 4.

As to `CCCS(=O)(=O)c1nncn1-c1ccccc1`, the Activity with Lactuca sativa [2], in the assay on Lactuca sativa [4] and in the assay with Lactuca sativa [6] was 0 each time.

As for `CCSc1nncn1-c1ccccc1`, the Activity in the assay on Lactuca sativa [2] amounted to 1; in the assay with Lactuca sativa [4] it was 2; in the assay on Lactuca sativa [6], 3.

Regarding `C#CCSc1nncn1-c1ccc(Cl)cc1`, the Activity worked out at 1 in the assay with Lactuca sativa [1]; 60% with Radish [8]; 3 in the assay with Lactuca sativa [2]; 0 with Lactuca sativa [3]; 60% in the assay on Radish [14]; 4 in the assay with Lactuca sativa [4]. In the assay with Lactuca sativa [5], the Activity is 2. Besides, the outcome in the assay with Radish [7], in the assay on Radish [9], with Radish [10], in the assay on Radish [11], in the assay with Radish [12] and with Radish [13] was Active. The outcome with Radish [16] was Active. Moreover, in the assay with Radish [15], the “fold change (FC)” value is recorded as 150.

On to `c1ccc(CSc2nncn2-c2ccccc2)cc1`, for which the Activity stood at 1 with Lactuca sativa [2], 1 with Lactuca sativa [4] and 2 in the assay on Lactuca sativa [6].

For `C#CCSc1nncn1-c1cccc(C(F)(F)F)c1`, the Activity came to 1 in the assay on Lactuca sativa [1]; 3 with Lactuca sativa [2]; 0 with Lactuca sativa [3]; 3 in the assay on Lactuca sativa [4]; 2 with Lactuca sativa [5].

`C#CCSc1nncn1-c1ccccc1`: the Activity with Lactuca sativa [1] is 0; in the assay with Lactuca sativa [2] it was 1; in the assay on Lactuca sativa [3], 0; in the assay with Lactuca sativa [4], 3; in the assay with Lactuca sativa [6], 4; with Lactuca sativa [5] it was 0.

With `CCCCSc1nncn1-c1ccccc1`, the Activity came to 0 in the assay on Lactuca sativa [2], 1 in the assay with Lactuca sativa [4] and 2 in the assay with Lactuca sativa [6].

In the case of `C#CCSc1nncn1-c1ccccc1Cl`, the Activity in the assay with Lactuca sativa [1], with Lactuca sativa [2], in the assay on Lactuca sativa [3], in the assay on Lactuca sativa [4] and with Lactuca sativa [5] was 0 in each case. The outcome with Radish [17] and in the assay on Radish [18] was inactive.

On to `C#CCSc1nncn1-c1cccc(Cl)c1`, for which the Activity in the assay on Lactuca sativa [1] is 2; in the assay with Radish [8] it was 60%; in the assay on Lactuca sativa [2] it was 3; with Lactuca sativa [3] it was 0; with Radish [14] it was 60%; in the assay on Lactuca sativa [4], 4. In the assay with Lactuca sativa [5], the Activity is on record as 3. Besides, the result in the assay with Radish [7], with Radish [10], with Radish [11], in the assay on Radish [12], in the assay with Radish [13] and in the assay with Radish [16] was Active.

With `COCSc1nncn1-c1ccccc1`, the Activity in the assay with Lactuca sativa [2], in the assay on Lactuca sativa [4] and in the assay on Lactuca sativa [6] was 0 throughout.

For the molecule `C#CCSc1nncn1-c1ccc(C(F)(F)F)cc1`, the Activity with Lactuca sativa [1] is 1; in the assay with Lactuca sativa [2], 3; in the assay with Lactuca sativa [3] it was 0; with Lactuca sativa [4], 3; in the assay on Lactuca sativa [5] it was 2.

The values are drawn from ChEMBL document CHEMBL3045588, “Synthesis and Bleaching Activity of 3-Propargylthio-4-(substituted phenyl)-4H-1, 2, 4-triazoles” (1995).
